Legend:
Human CCR3 = target: T1, Human CCR3 (Homo sapiens, UniProt P51677); assay: Receptor binding assay (RBA), [125I]-eotaxin; settings: human CCR3-transformed K562 cells, 0.1 nM [125I]-eotaxin; compounds of about 40 to 90% purity; read-out: Activity grade RBA (IC50 class)
T1 construct: The cloned CCR3 cDNA was constructed with pcDNA3 vector and transfected into a IC562 cell line; expressed in transfected cells
T1 sequence (P51677 1-355): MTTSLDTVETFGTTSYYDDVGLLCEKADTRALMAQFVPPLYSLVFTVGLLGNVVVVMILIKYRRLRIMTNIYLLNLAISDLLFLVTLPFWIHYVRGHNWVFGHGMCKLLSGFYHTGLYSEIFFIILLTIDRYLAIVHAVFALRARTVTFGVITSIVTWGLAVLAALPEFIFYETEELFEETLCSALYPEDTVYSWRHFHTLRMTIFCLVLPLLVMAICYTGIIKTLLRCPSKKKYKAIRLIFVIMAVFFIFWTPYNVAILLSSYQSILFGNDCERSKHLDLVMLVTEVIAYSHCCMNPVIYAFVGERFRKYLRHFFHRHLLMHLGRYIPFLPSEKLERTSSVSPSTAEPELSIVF
Description: [Determination of IC50 Values of Compounds in Receptor Binding Assay]
• Human CCR3-transformed K562 cells were used. The cloned CCR3 cDNA was constructed with pcDNA3 vector and transfected into a IC562 cell line. The human CCR3-transformed K562 cells were maintained in RPMI-1640 (Cat.#22400-089, Life Technologies) supplemented with 10% FCS (Cat.#A-1115-L, Hyclone), 55 μM 2-mercaptoethanol (Cat.#21985-023, Life Technologies), 1 mM sodium pyruvate (Cat.#11360-070, Life Technologies), 100 units/ml of penicillin G and 100 μg/ml of streptomycin (Cat.#15140-122, Life Technologies), and 0.4 mg/ml of Geneticin (Cat.#10131-035, Life Technologies)(hereinafter called “culture medium”). Before the receptor binding assay, cells were pretreated with 5 mM sodium butyrate (Cat.#193-01522, Wako)-containing the culture medium (2×10^5 cells/ml) for 20-24 hours to increase the expression of CCR3. (2) Receptor Binding Assay (RBA) • Butyrate-pretreated cells, suspended in binding buffer (25 mM HEPES pH 7.6, 1 mM CaCl2, 5 mM MgCl2, 0.5% BSA, 0.1% NaN3) at a cell density of 2×10^6 cells/ml, were added into 60 μl/well in the 96-well round bottom polypropylene plate (Cat.#3365, Costar). Compounds, diluted with the binding buffer (4-times higher concentration of the final concentration), were added into 30 μl/well in the polypropylene plate. [^125I]-labeled human eotaxin (Cat.#IM290, Amersham Pharmacia Biotech), diluted with the binding buffer at the concentration of 0.4 nM (final concentration; 0.1 nM), was added into 30 μl/well in the polypropylene plate. Total 120 μl/well of binding reaction mixture (60 μl/well of cell suspension, 30 μl/well of compound solution, and 30 μl/well of [^125I]-labeled eotaxin) were incubated in the polypropylene plate for 1 hour at room temperature after the incubation, 100 μl/well of the reaction mixture was transferred to a filtration plate (Cat.#MAFB-N0B, Millipore), and washed with the washing buffer (25 mM HEPES pH 7.6, 1 mM CaCl2, 5 mM MgCl2, 0.5% BSA, 0.1% NaN3, 0.5 M NaCl) twice. The 96-well filtration plate was pretreated with 100 μl/well of 0.5% polyethylenimine (Cat.#P-3143, Sigma) for 2-4 hours at room temperature and washed with the washing buffer twice before use. The non-specific binding was determined by parallel incubation in the presence of 500 nM of non-labeled eotaxin (Cat.#23209, Genzyme Techne). The radioactivities remained on the filter were measured by liquid scintillation counter (TopCount™, Packard) after an addition of 45 μl/well of scintillant (Microscint20, Cat.#6013621, Packard). The inhibition percent at each concentration of compound was calculated, and IC50 values were determined from the inhibition curve. [Determination of IC50 Values of Compounds in Calcium Mobilization Assay] (IC50 Ca2+) (1) Cell • Human CCR3-transformed K562 cells were used. The human CCR3-transformed K562 cells were maintained in RPMI-1640 supplemented with 10% FCS, 55 μM 2-mercaptoethanol (Cat.#21985-023, Life Technologies), 1 mM sodium pyruvate, 100 units/ml of penicillin G and 100 μg/ml of streptomycin and 0.4 mg/ml of Geneticin. Before the calcium mobilization assay, cells were pretreated with 5 mM sodium butyrate-containing the culture medium (2×10^5 cells/ml) for 20-24 hours to increase the expression of CCR3. (2) Calcium Mobilization Assay • Butyrate-pretreated cells were loaded with Fluo-3AM (Cat.#F-1242, Molecular Probes) in loading buffer (Hanks' solution Cat.#05906 Nissui, 20 mM HEPES pH 7.6, 0.1% BSA, 1 mM probenecid Cat.#P-8761 Sigma, 1 μM Fluo-3AM, 0.01% pluronic F-127 Cat.#P-6866 Molecular Probes) at a cell density of 1×10^7 cells/ml. Then, cells were washed with calcium assay buffer (Hanks' solution Cat.#05906 Nissui, 20 mM HEPES pH 7.6, 0.1% BSA, 1 mM Probenecid Cat.#P-8761 Sigma). The cell suspension (3.3×10^6 cells/ml) was added into 60 μl/well in the 96-well clear bottom black plate (Cat.#3904, Costar). […]

IC50 (Human CCR3): 1 to 10 µM
melting point: 173 to 174 °C
Structure (SMILES): O=[N+]([O-])c1ccc(Oc2cccc(Cl)c2Cl)c(S(=O)(=O)N2CCNCC2)c1 [Example 1-82]

From patent US8242118B2, “Arylsulfonamide derivatives for use as CCR3 antagonists in the treatment of inflammatory and immunological disorders” (Axikin Pharmaceuticals Inc., priority 2001, dated 2012)
